# Assay results as given in patent US12653183B2, “Hygroscopic salt microencapsulation, and uses thereof” (priority 2020, dated 2026).
# How the values were obtained:
# feral pigs [1] = assay: LD50 and time to death of 1080 in feral pigs; conditions: feral pigs vs wild dogs
# feral pigs [2] = conditions: cited from earlier work
# [3] = pH<7
Structure (SMILES),multiple of the dose used for canid pests (feral pigs [1]) [fold],time for pigs to die (feral pigs [2]),stability of sodium nitrite in the bait composition [3]
"O=C(O)CF [compound 1080, sodium fluoroacetate]",≤ 40,up to 12 hours,–
O=NO [sodium nitrite],–,–,unstable
